{"source": "paper PMC3827205", "about": "“Discovery and Characterization of a Novel Cyclic Peptide That Effectively Inhibits Ephrin Binding to the EphA4 Receptor and Displays Anti-Angiogenesis Activity” (PLoS ONE, 2013)", "key": {"[1]": {"target": "T1, EphA4 Fc Chimera protein / ephrinA5 (Mus musculus, UniProt Q03137)", "T1 construct": "using the immobilized EphA4 extracellular domain fused to human Fc; purchased R&D Systems, Minneapolis, MN", "T1 sequence (Q03137 20-547 limits assumed, stated change not applied)": "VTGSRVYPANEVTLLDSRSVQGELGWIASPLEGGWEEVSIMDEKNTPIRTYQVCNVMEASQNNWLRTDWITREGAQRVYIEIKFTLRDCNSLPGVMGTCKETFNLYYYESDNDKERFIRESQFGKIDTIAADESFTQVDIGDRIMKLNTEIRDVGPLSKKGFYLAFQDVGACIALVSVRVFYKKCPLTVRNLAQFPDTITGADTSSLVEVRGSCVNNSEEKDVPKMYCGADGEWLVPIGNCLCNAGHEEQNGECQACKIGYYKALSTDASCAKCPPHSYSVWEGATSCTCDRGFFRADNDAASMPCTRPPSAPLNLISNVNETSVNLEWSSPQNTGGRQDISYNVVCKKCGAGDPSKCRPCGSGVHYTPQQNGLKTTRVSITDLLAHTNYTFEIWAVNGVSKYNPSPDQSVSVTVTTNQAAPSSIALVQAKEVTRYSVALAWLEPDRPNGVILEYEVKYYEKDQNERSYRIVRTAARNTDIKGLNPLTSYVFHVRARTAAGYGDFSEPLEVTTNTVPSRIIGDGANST", "assay": "ELISA-based binding assay: inhibition of ephrinA5 AP binding to immobilized EphA4 Fc", "type": "biochemical", "procedure": "For Eph receptor binding studies, 50 μl of ephrin A5 (5 μg/ml, kindly provided by Dr. Elena B. Pasquale, Sanford-Burnham Medical Research Institute) was coated onto each well on a 96-well ELISA plate (Corning, #3690) overnight at 4°C. The wells were blocked with 100 μl blocking buffer (Pierce, #37543) for 1 h and then rinsed with PBS. A 1 μg of recombinant mouse EphA4 Fc Chimera protein (R&D Systems, Minneapolis, MN) in EIA buffer (1% BSA, 0.05% Tween 20 in TBS) was then incubated in each well for 1.5 h at room temperature. The EphA4 Fc-coated wells were rinsed with PBS buffer and incubated for 1.5 h with different peptide concentrations and same amount of alkaline phosphatase (AP)-tagged ephrin A5 in a total volume of 50 μl. After the unbound peptide and ephrin had been washed away, bound ephrin-A5 AP was quantified using p-nitrophenylphosphate as a substrate by a Synergy2 reader (BioTek, Winooski, VT) with wavelength of 405 nm. Data were fitted using nonlinear regression. IC50 values were calculated using Prism (GraphPad Software Inc.)."}, "EphA4 Fc": {"test_system": "EphA4 Fc", "assay": "Phage binding assay (phage-displayed peptide on EphA4 Fc)", "set-up": "species or system mouse", "conditions": "4 μg/ml EphA4 Fc coating, room temperature, 2 h, HRP-anti-M13, ABTS, 405 nm, versus BSA control", "procedure": "A pre-made library consisting of a disulfide-constrained nonapeptide (Ph.D.-C7C) library (New England Biolabs, Beverly, MA) was used for panning on EphA4. Recombinant mouse EphA4 Fc Chimera protein (R&D Systems, Minneapolis, MN) was incubated overnight at 4°C in 96-well ELISA plate wells at concentrations of 10 μg/ml in coating buffer (0.1 M NaHCO3). Wells were blocked for 1 h with blocking buffer (0.1 M NaHCO3, 5 mg/ml BSA, 0.02%NaN3), and rinsed with TBST (0.1% Tween20 in TBS). In round 1 of panning, 5×10^10 plaque-forming units (PFUs) of the phage library in 100 μl TBST were incubated for 1h at room temperature in EphA4 receptor-coated wells. After washing, the remaining bound phage were eluted with 100 μl of 0.2 M glycine-HCl (pH 2.2), and then neutralized by 15 μl 1M Tris-HCl (pH9.1). The entire eluate was used to infect early-log phase ER2738 host bacteria and amplified (4.5 h, 37 °C). The phage were concentrated and stored according to the manufacturer’s recommendations. In rounds 2, 3, and 4, we added 4.9×10^10, 1.81×10^11, 1.95×10^11 PFUs of the amplified phage pool from the previous round, respectively, to an EphA4 Fc-coated well and a BSA coated well. The phages were panned as described for round 1, except eluted phages were tittered prior to amplification to assess enrichment.\nPhages binding to EphA4 receptor-coated plates were quantified using an anti-phage antibody conjugated to horseradish peroxidase (M13 phage detection kit, Amersham Pharmacia Biotech, Piscataway, NJ) with 2,2-azino-bis(3-ethylbenzthiazoline-6-sulfonic acid) as substrate. A 50 μl of 4 μg/ml EphA4 Fc or 5 mg/ml BSA (as a negative control) in coating buffer (0.1 M NaHCO3) was incubated overnight at 4°C in 96-well ELISA plate wells. Wells were blocked for 30 minutes with blocking buffer, and rinsed with TBST. A 50 μl of amplified phage was added to each well and incubated at room temperature for 2 h. […] Absorbance of each well was read at 405 nm with a Synergy 2 reader (BioTek, Synergy 2). […]"}, "HUVEC": {"test_system": "HUVEC", "assay": "HUVEC viability assay (CellTiter-Blue)", "type": "cell-based, human", "conditions": "for cytotoxic effects on HUVECs: 48 h, 37°C, CellTiter-Blue, fluorescence 540Ex/600Em, at least three independent experiments", "procedure": "The cytotoxic effects of the TYY cyclic peptide were measured at different concentrations by plating 1×10^4 HUVEC cells (ATCC) per well in 96-well plates and determining cell survival. Cells were treated with various concentrations of TYY (10 μM and 20 μM) and incubated in an incubator with a 5% CO2 and 95% humidity atmosphere at 37°C for 24 h and 48 h. After incubation, cell viability was measured using a CellTiter-Blue assay kit (Promega) according to the manufacturer’s instructions. Briefly, 20 μl of CellTiter-Blue reagent was added to 100 μl of culture media and cells were incubated for 2-4 hours at 37°C. Afterward, fluorescence at 540Ex/600Em was measured using a fluorescence plate reader (BioTek, Synergy 2). Each experimental data point was generated from at least three independent experiments.\nFigure 3 Effects of the TYY cyclic peptide on viability of HUVEC cells. The HUVECs were treated with the indicated concentrations of the TYY peptide. A 0.1% DMSO control was used because the highest concentration of the DMSO vehicle in the TYY solutions was 0.1%. The cell viability was determined by CellTiter-Blue assays 24 h and 48 h after addition of TYY. Each experimental data point was generated from at least three independent experiments."}, "EphA4": {"test_system": "EphA4", "conditions": "ref [25]; cited from earlier work", "description": "A promising strategy for anti-angiogenic cancer therapies is to antagonize Eph-ephrin interactions by interfering with the Eph receptor/ephrin system. Several different synthetic peptides and small molecules have been studied for this purpose; the advantage of these artificial ligands is that they can show a much higher selectivity compared to the physiological ephrin ligands."}}, "note": "Where “and” joins values, the source holds several entries; their conditions need not be identical. Equal entries are not always repeated. Positions of bridges follow the written chain, without caps; N, C: chain ends. Residues, ends and D or L forms follow the SMILES beside them. No end group written: not given here.", "data": [{"compound": "CSWYWPLPC (disulfide 1-9) [disulfide-constrained cyclic nonapeptide c[…] from M13 phage display library]", "values": [{"measurement": "inhibition of ephrin A5 binding to EphA4", "setting": "[1]; 50 μM peptide, ELISA, 1.5 h", "result": 40, "unit": "%"}, {"measurement": "inhibition of EphA4 binding with AP-tagged ephrinA5 (in words)", "setting": "[1]; dose dependence", "result": "dose-dependent inhibition"}, {"measurement": "binding of phage clones to EphA4 Fc", "setting": "EphA4 Fc", "result": "significant binding"}]}, {"compound": "CWPIKVGWC (disulfide 1-9) [cyclic nonapeptide c[…] from M13 phage display library, tested on phage]", "values": [{"measurement": "binding of phage clones to EphA4 Fc", "setting": "EphA4 Fc", "result": "significant binding"}]}, {"compound": "CLMTSQFRC (disulfide 1-9) [cyclic nonapeptide c[…] from M13 phage display library, tested on phage]", "values": [{"measurement": "binding of phage clones to EphA4 Fc", "setting": "EphA4 Fc", "result": "significant binding"}]}, {"compound": "CC(C)C[C@@H]1NC(=O)[C@@H]2CCCN2C(=O)[C@H](Cc2c[nH]c3ccccc23)NC(=O)[C@H](Cc2ccc(O)cc2)NC(=O)[C@H](Cc2ccc(O)cc2)NC(=O)[C@H]([C@@H](C)O)NC(=O)[C@@H](N)CSSC[C@@H](C(N)=O)NC(=O)[C@@H]2CCCN2C1=O", "note": "[TYY] (H-CTYYWPLPC-NH2; disulfide 1-9)", "values": [{"measurement": "inhibition of EphA4-ephrinA5 binding", "setting": "[1]; 100 nM peptide, ELISA, 1.5 h, three independent measurements", "result": 24.8, "unit": "%"}, {"measurement": "inhibition of EphA4-ephrinA5 binding", "setting": "[1]; 100 μM peptide, ELISA, 1.5 h, three independent measurements", "result": "94.06% and 94%"}, {"measurement": "IC50", "setting": "[1]; ELISA, ephrin A5-coated plate, EphA4 Fc, AP-tagged ephrin A5, 1.5 h incubation, p-nitrophenylphosphate, 405 nm, nonlinear regression (Prism), three independent measurements", "result": 11.7, "unit": "µM"}, {"measurement": "cytotoxic effects on HUVECs", "setting": "HUVEC; 10 μM", "result": "no cytotoxic effects on HUVECs"}, {"measurement": "cytotoxic effects on HUVECs", "setting": "HUVEC; 20 μM", "result": "no cytotoxic effects on HUVECs"}, {"measurement": "cytotoxic effects in HUVECs", "setting": "HUVEC; concentrations up to 20 μM", "result": "no cytotoxic effects in the HUVECs"}]}, {"compound": "KYLPYWPVLSSL [linear 12-residue KYL peptide (…), positive control, reference compound]", "values": [{"measurement": "inhibition of EphA4-ephrinA5 binding", "setting": "[1]; 25 μM, positive control, ELISA, 1.5 h, three independent measurements", "result": 92, "unit": "%"}, {"measurement": "artificial ligand of EphA4", "setting": "EphA4", "result": "act as artificial ligands"}]}]}
